± gives the standard deviation of the averaged measurements. One block for each compound: values may come before it.
How the values were obtained:
[1] = TIMS collisional cross section (CCS, N2) of the lipid ion; higher = larger ion cross section; settings: ionization mode: negative, one isomer drawn
Protocol: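 Lipid extracts of human plasma (NIST SRM 1950), mouse liver or HeLa cells were separated by nanoflow C18 LC (30 min gradient) and analysed by TIMS-PASEF on a timsTOF Pro. Ion mobility was calibrated with the Agilent tuning mix (negative mode ions) and converted to collisional cross sections (Mason–Schamp, N2).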

[2] = as above; settings: ionization mode: positive, one isomer drawn

Compound: CCCCCCCCCCCCCCCC(=O)OC[C@H](COP(=O)([O-])OCC[N+](C)(C)C)OC(=O)CCCC=O [Oxidized PC 16:0_5:0]
TIMS collisional cross section ([1]; sample type: Human plasma, ion (formula + adduct): [C29H56NO9P+HCOO] 1-): 255.5 Å²
TIMS collisional cross section ([1]; sample type: Mouse Liver, ion (formula + adduct): [C29H56NO9P+AcO] 1-): 258.4 Å²

Compound: CC/C=C\C/C=C\CC(O)/C=C/C=C\C/C=C\C/C=C\CCC(=O)O[C@H](COC(=O)CCCCCCCCCCCCCCC)COP(=O)(O)OCCN (some centres not stated) [Oxidized PE 16:0@_22:6]
TIMS collisional cross section ([1]; sample type: Mouse Liver, ion (formula + adduct): [C43H74NO9P-H] 1-): 279 Å²

Compound: CCCCC/C=C\C/C=C\C/C=C\C/C=C\CCCC(=O)O[C@H](COC(=O)CCCCCCC/C=C\C/C=C\CCCCC)COP(=O)([O-])OCC[N+](C)(C)C [PC 18:2_20:4]
TIMS collisional cross section ([1]; sample type: Human plasma, ion (formula + adduct): [C46H80NO8P+HCOO] 1-): 296.8 ± 0.92 Å²
TIMS collisional cross section ([1]; sample type: Mouse Liver, ion (formula + adduct): [C46H80NO8P+HCOO] 1-): 295.7 ± 0.42 Å²

Compound: CC/C=C\C/C=C\CC(O)/C=C/C=C\C/C=C\C/C=C\CCC(=O)O[C@H](COC(=O)CCCCCCCCCCCCCCCCC)COP(=O)(O)OCCN (some centres not stated) [Oxidized PE 18:0_22:6]
TIMS collisional cross section ([1]; sample type: Human plasma, ion (formula + adduct): [C45H78NO9P-H] 1-): 284.6 Å²

Compound: CCCCCCCC/C=C\CCCCCCCC(=O)O[C@H](COC(=O)CCCCCCCCCCCCCCCC)COP(=O)([O-])OCC[N+](C)(C)C [PC 17:0@_18:1]
TIMS collisional cross section ([1]; sample type: Mouse Liver, ion (formula + adduct): [C43H84NO8P+HCOO] 1-): 294.5 Å²

Compound: CCCC/C=C\CCCCCCCC(=O)OC[C@H](COP(=O)([O-])OCC[N+](C)(C)C)OC(=O)CCCCCCC/C=C\CCCCCC [PC 14:1_16:1@]
TIMS collisional cross section ([1]; sample type: Human plasma, ion (formula + adduct): [C38H72NO8P+HCOO] 1-): 278.6 Å²

Compound: CCCCCCCC/C=C\CCCCCCCC(=O)O[C@H](COC(=O)CCCCCCCCCCCCCCCC)COP(=O)([O-])OCC[N+](C)(C)C [PC 17:0_18:1]
TIMS collisional cross section ([1]; sample type: Human plasma, ion (formula + adduct): [C43H84NO8P+HCOO] 1-): 294.5 Å²

Compound: CCCCC/C=C\C=C/CCCCCCCCC(=O)O[C@H](COC(=O)CCCCCCCCCCCCCCCCC)COP(=O)([O-])OCC[N+](C)(C)C [PC 18:0_18:2]
TIMS collisional cross section ([1]; sample type: Human plasma, ion (formula + adduct): [C44H84NO8P+HCOO] 1-): 296.5 ± 0.35 Å²
TIMS collisional cross section ([1]; sample type: Mouse Liver, ion (formula + adduct): [C44H84NO8P+HCOO] 1-): 295.9 ± 0.17 Å²

Compound: CCCCC/C=C\C/C=C\CCCCCCCC(=O)O[C@H](COC(=O)CCCCCCC/C=C\CCCCCC)COP(=O)([O-])OCC[N+](C)(C)C [PC 16:1_18:2]
TIMS collisional cross section ([1]; sample type: Mouse Liver, ion (formula + adduct): [C42H78NO8P+HCOO] 1-): 288.8 Å²
TIMS collisional cross section ([1]; sample type: Mouse Liver, ion (formula + adduct): [C42H78NO8P-CH3] 1-): 270.5 Å²

Compound: CCCCC/C=C\C[C@H](O)/C=C/C=C\C/C=C\CCCC(=O)O[C@H](CO/C=C\CCCCCCCCCCCCCC)COP(=O)(O)OCCN [Oxidized PE 16:0@_20:4]
TIMS collisional cross section ([1]; sample type: Human plasma, ion (formula + adduct): [C41H74NO8P+OAcO] 1-): 291.6 Å²
TIMS collisional cross section ([1]; sample type: Human plasma, ion (formula + adduct): [C41H74NO8P-H] 1-): 274.77 ± 1.5 Å²

Compound: CCCCCCCCCCCCCCCCCC(=O)OC[C@H](COP(=O)([O-])OCC[N+](C)(C)C)OC(=O)CCCCCCCCCCCCCCCCC [PC 18:0_18:0]
TIMS collisional cross section ([1]; sample type: Mouse Liver, ion (formula + adduct): [C44H88NO8P+HCOO] 1-): 298.4 Å²

Compound: CCCCC/C=C\C/C=C\C/C=C\C/C=C\CCCCCC(=O)OC[C@@H](O)COP(=O)([O-])OCC[N+](C)(C)C [LPC 22:4_0:0]
TIMS collisional cross section ([1]; sample type: Human plasma, ion (formula + adduct): [C30H54NO7P+HCOO] 1-): 249 ± 0.42 Å²
TIMS collisional cross section ([1]; sample type: Human plasma, ion (formula + adduct): [C30H54NO7P-CH3] 1-): 231.5 Å²
TIMS collisional cross section ([1]; sample type: Mouse Liver, ion (formula + adduct): [C30H54NO7P+HCOO] 1-): 248.7 Å²

Compound: CCCCCCCCCCCCCCCCCCCCC(=O)O[C@H](COC(=O)CCCCCCCCCCCCCCC)COP(=O)(O)O [PA 16:0_21:0@]
TIMS collisional cross section ([1]; sample type: Mouse Liver, ion (formula + adduct): [C40H79O8P+Cl] 1-): 276.3 Å²

Compound: CCCCC/C=C\C/C=C\C/C=C\C/C=C\C/C=C\CCC(=O)O[C@H](COC(=O)CCCCCCCCCCCCCCC)COP(=O)([O-])OCC[N+](C)(C)C [PC 16:0@_22:5]
TIMS collisional cross section ([1]; sample type: Human plasma, ion (formula + adduct): [C46H82NO8P-CH3] 1-): 282.7 ± 0.42 Å²
TIMS collisional cross section ([1]; sample type: Mouse Liver, ion (formula + adduct): [C46H82NO8P-CH3] 1-): 282.4 Å²

Compound: CCCCCC/C=C\CCCCCCCC(=O)O[C@@H](CO)COC(=O)CCCCCCCCCCCCC [DG 14:0_16:1_0:0] (ion (formula + adduct): [C33H62O5+NH4] 1+)
TIMS collisional cross section ([2]; sample type: HeLa): 248.3 Å²

Continued, values first:

TIMS collisional cross section ([1]; sample type: Mouse Liver, ion (formula + adduct): [C42H76NO8P-H] 1-): 273.9 Å²
Compound: CCCCC/C=C\C/C=C\C/C=C\C/C=C\CCCC(=O)O[C@H](COC(=O)CCCCCCCCCCCCCCCC)COP(=O)(O)OCCN [PE 17:0_20:4]

TIMS collisional cross section ([1]; sample type: Human plasma, ion (formula + adduct): [C39H74NO7P-H] 1-): 265.6 Å²
Compound: CCCCC/C=C\C/C=C\CCCCCCCC(=O)O[C@H](CO/C=C\CCCCCCCCCCCCCC)COP(=O)(O)OCCN [PE P- 16:0@_18:2]

TIMS collisional cross section ([1]; sample type: Mouse Liver, ion (formula + adduct): [C42H74NO8P-H] 1-): 271.6 Å²
Compound: CCCCC/C=C\C/C=C\C/C=C\C/C=C\CCCC(=O)O[C@H](COC(=O)CCCCCCC/C=C\CCCCCCC)COP(=O)(O)OCCN [PE 17:1_20:4]

TIMS collisional cross section ([1]; sample type: Human plasma, ion (formula + adduct): [C47H87O13P-H] 1-): 300.4 Å²
Compound: CCCCC/C=C\C/C=C\CCCCCCCCCC(=O)OC[C@H](COP(=O)(O)OC1[C@H](O)[C@H](O)C(O)[C@H](O)[C@H]1O)OC(=O)CCCCCCCCCCCCCCCCC (some centres not stated) [PI 20:2_18:0@]

TIMS collisional cross section ([1]; sample type: Mouse Liver, ion (formula + adduct): [C42H72NO10P-H] 1-): 279 Å²
Compound: CC/C=C\C/C=C\C/C=C\C/C=C\C/C=C\CCCC(=O)OC[C@H](COP(=O)(O)OC[C@H](N)C(=O)O)OC(=O)CCCCCCCCCCCCCCC [PS 20:5_16:0]

TIMS collisional cross section ([1]; sample type: Human plasma, ion (formula + adduct): [C42H84NO7P+HCOO] 1-): 291.1 Å²
Compound: CCCCCCCC/C=C\CCCCCCCCOC[C@H](COP(=O)([O-])OCC[N+](C)(C)C)OC(=O)CCCCCCCCCCCCCCC [PC O- 18:1@_16:0]

TIMS collisional cross section ([1]; sample type: Human plasma, ion (formula + adduct): [C43H78NO7P-H] 1-): 276.3 Å²
Compound: CCCCC/C=C\C/C=C\C/C=C\C/C=C\CCCCCC(=O)O[C@H](CO/C=C\CCCCCCCCCCCCCC)COP(=O)(O)OCCN [PE P- 16:0@_22:4]

TIMS collisional cross section ([1]; sample type: Human plasma, ion (formula + adduct): [C43H74NO8P-H] 1-): 274.5 Å²
TIMS collisional cross section ([1]; sample type: Mouse Liver, ion (formula + adduct): [C43H74NO8P-H] 1-): 273.9 Å²
Compound: CC/C=C\C/C=C\C/C=C\C/C=C\C/C=C\CCCC(=O)OC[C@H](COP(=O)(O)OCCN)OC(=O)CCCCCCC/C=C\CCCCCCCC [PE 20:5_18:1]

TIMS collisional cross section ([1]; sample type: Mouse Liver, ion (formula + adduct): [C42H72NO8P-H] 1-): 271.6 Å²
Compound: CC/C=C\C/C=C\C/C=C\C/C=C\C/C=C\C/C=C\CCC(=O)O[C@H](COC(=O)CCCCCCCCCCCCCC)COP(=O)(O)OCCN [PE 15:0_22:6]

TIMS collisional cross section ([1]; sample type: Mouse Liver, ion (formula + adduct): [C48H88NO8P+HCOO] 1-): 304.5 Å²
Compound: CCCCC/C=C\C/C=C\C/C=C\C/C=C\CCCC(=O)O[C@H](COC(=O)CCCCCCCCCCCCCCCCCCC)COP(=O)([O-])OCC[N+](C)(C)C [PC 20:0_20:4]

TIMS collisional cross section ([1]; sample type: Mouse Liver, ion (formula + adduct): [C44H80NO10P-H] 1-): 286.4 Å²
Compound: CCCCC/C=C\C/C=C\C/C=C\CCCCCCC(=O)OC[C@H](COP(=O)(O)OC[C@H](N)C(=O)O)OC(=O)CCCCCCCCCCCCCCCCC [PS 20:3_18:0]

TIMS collisional cross section ([2]; sample type: HeLa): 328.6 Å²
Compound: CCCCCCCCCCCCCCCCCCCC(=O)OC[C@@H](COC(=O)CCCCCCCCCCCCCCC)OC(=O)CCCCCCCCCCCCCCCC [TG 16:0_17:0_20:0] (ion (formula + adduct): [C56H108O6+NH4] 1+)

TIMS collisional cross section ([2]; sample type: plasma): 314.45 ± 0.21 Å²
Compound: C(OC(=O)CCCCCCCCCCCCCCC)[C@]([H])(OC(CCCCCCCCCCCCCCC)=O)COC(CCCCCCCCCCCCCCC)=O [TG 16:0_16:0_16:0] (ion (formula + adduct): [C51H98O6+NH4] 1+)

TIMS collisional cross section ([2]; sample type: HeLa): 324.3 Å²
TIMS collisional cross section ([2]; sample type: plasma): 324.25 ± 0.35 Å²
Compound: CCCCC/C=C\C/C=C\CCCCCCCC(=O)OC[C@@H](COC(=O)CCCCCCC/C=C\CCCCCCCC)OC(=O)CCCCCCC/C=C\CCCCCCCC [TG 18:1_18:1_18:2] (ion (formula + adduct): [C57H102O6+NH4] 1+)

TIMS collisional cross section ([2]; sample type: HeLa): 309.6 Å²
TIMS collisional cross section ([2]; sample type: plasma): 309 Å²
Compound: CCCCCC/C=C\CCCCCCCC(=O)O[C@H](COC(=O)CCCCCCCCCCCCC)COC(=O)CCCCCCCCCCCCCCCC [TG 14:0_16:1_17:0] (ion (formula + adduct): [C50H94O6+NH4] 1+)

TIMS collisional cross section ([2]; sample type: Liver): 302 Å²
Compound: CCCCCCCCCCCCCCC(=O)OC[C@@H](COC(=O)CCCCCCCCCCCCC)OC(=O)CCCCCCCCCCCCCC [TG 14:0_15:0_15:0] (ion (formula + adduct): [C47H90O6+NH4] 1+)
